Experimental data: patent US6355799B1, “Substituted benzene compounds, process for their preparation, and herbicidal and defoliant compositions containing them” (ISK Americas Incorporated, priority 1997, dated 2002)

Columns and labels:
Assay type in all cases: in vivo
[1] = test system: redroot pigweed (Amaranthus retroflexus, AMARE); experiment: Post-emerge test, greenhouse herbicide activity screening; settings: post-emerge, 14 days after application
How it was run: (§1)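 Each test used a mechanized track sprayer delivering 187 l/ha of acetone solution at 15–1000 g ai/ha. Post-emerge foliage at 2–3 leaves was treated with added 0.25% v/v non-ionic surfactant and bottom-watered only. Injury was assessed on day 14, where 100 means total kill.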

[2] = test system: lambsquarters (Chenopodium album, CHEAL); experiment: as above; settings: post-emerge, 14 days after application, rating scale 0-100
How it was run: as §1

[3] = test system: sicklepod (Cassia obtusifolia, CASOB); experiment: as above; settings: post-emerge, 14 days after application, rating scale 0-100
How it was run: as §1

[4] = test system: velvetleaf (Abutilon theophrasti, ABUTH); experiment: as above; settings: post-emerge, 14 days after application, rating scale 0-100
How it was run: as §1

[5] = test system: large crabgrass (Digitaria sanguinalis, DIGSA); experiment: as above; settings: post-emerge, 14 days after application, rating scale 0-100
How it was run: as §1

[6] = test system: barnyardgrass (Echinochloa crus-galli, ECHCG); experiment: as above; settings: post-emerge, 14 days after application, rating scale 0-100
How it was run: as §1

[7] = test system: ivyleaf morningglory (Ipomoea hederacea, IPOHE); experiment: as above; settings: post-emerge, 14 days after application, rating scale 0-100
How it was run: as §1

[8] = test system: green foxtail (Setaria viridis, SETVI); experiment: as above; settings: post-emerge, 14 days after application, rating scale 0-100
How it was run: as §1

[9] = test system: johnsongrass (Sorghum halepense, SORHA); experiment: as above; settings: post-emerge, 14 days after application, rating scale 0-100
How it was run: as §1

[10] = test system: upland rice (Oryza sp., var. Tebonnet, RICE); experiment: Pre-emerge test, crop safety; settings: crop damage, pre-emerge, phytotoxicity rating 0-100 at 14 days after application
How it was run: (§2)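 Sandy loam pots; pre-emerge: sown 1 d pre-spray, surface-watered after, then bottom-watered. Post-emerge: sown 8–21 d before, 2–3 leaf stage, + 0.25% v/v NIS, bottom-watered. Acetone, 187 l/ha track spray, 15–1000 g ai/ha. 0–100 injury score, day 14.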

[11] = test system: field corn (Zea mays L., var. Dekalb 535, CORN); experiment: Pre-emerge test, crop safety; settings: crop damage, pre-emerge, phytotoxicity rating 0-100 at 14 days after application
How it was run: as §2

[12] = test system: upland rice (Oryza sp., var. Tebonnet, RICE); experiment: Post-emerge test, crop safety; settings: post-emerge, 14 days after application, rating scale 0-100
How it was run: (§3)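 Plants grown in 10 cm pots of sandy loam mix received acetone-dissolved compounds through a moving flat-fan nozzle. Doses ranged from 15 to 1000 g ai/ha. Pre-emerge pots were seeded one day earlier, post-emerge pots 8–21 days earlier. Fourteen days on, each pot was graded 0–100 for damage.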

[13] = test system: field corn (Zea mays L., var. Dekalb 535, CORN); experiment: Post-emerge test, crop safety; settings: post-emerge, 14 days after application, rating scale 0-100
How it was run: as §3

[14] = test system: lambsquarters (Chenopodium album, CHEAL); experiment: Pre-emerge test, greenhouse herbicide activity screening; settings: pre-emerge, phytotoxicity rating 0-100 at 14 days after application
How it was run: (§4)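 Rating: 0–100 visual injury, 14 DAA. Application: acetone, 187 l/ha, 15–1000 g ai/ha, flat-fan track sprayer with nozzle 40–45 cm above soil or canopy. Post-emerge runs used 0.25% v/v surfactant on 2–3 leaf plants.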

[15] = test system: sicklepod (Cassia obtusifolia, CASOB); experiment: as above; settings: pre-emerge, phytotoxicity rating 0-100 at 14 days after application
How it was run: as §4

[16] = test system: velvetleaf (Abutilon theophrasti, ABUTH); experiment: as above; settings: pre-emerge, phytotoxicity rating 0-100 at 14 days after application
How it was run: as §4

[17] = test system: large crabgrass (Digitaria sanguinalis, DIGSA); experiment: as above; settings: pre-emerge, phytotoxicity rating 0-100 at 14 days after application
How it was run: as §4

[18] = test system: barnyardgrass (Echinochloa crus-galli, ECHCG); experiment: as above; settings: pre-emerge, phytotoxicity rating 0-100 at 14 days after application
How it was run: as §4

[19] = test system: ivyleaf morningglory (Ipomoea hederacea, IPOHE); experiment: as above; settings: pre-emerge, phytotoxicity rating 0-100 at 14 days after application
How it was run: as §4

[20] = test system: green foxtail (Setaria viridis, SETVI); experiment: as above; settings: pre-emerge, phytotoxicity rating 0-100 at 14 days after application
How it was run: as §4

[21] = test system: johnsongrass (Sorghum halepense, SORHA); experiment: as above; settings: pre-emerge, phytotoxicity rating 0-100 at 14 days after application
How it was run: as §4

[22] = test system: redroot pigweed (Amaranthus retroflexus, AMARE); experiment: as above; settings: pre-emerge, phytotoxicity rating 0-100 at 14 days after application
How it was run: as §2

Structure (SMILES): Cc1cccc(C)c1OC(=O)Nc1c(C)c(Cl)cc(F)c1-n1c(=O)cc(C(F)(F)F)n(C)c1=O [4-55]
- phytotoxicity rating AMARE ([1]; 63 g ai/ha, rating scale 0-100 (0 no damage, 100 complete death)): 50
- phytotoxicity rating AMARE ([1]; 250 g ai/ha, rating scale 0-100): 80
- phytotoxicity rating CHEAL ([2]; 63 g ai/ha): 50
- phytotoxicity rating CHEAL ([2]; 250 g ai/ha): 90
- phytotoxicity rating CASOB ([3]; 63 g ai/ha): 20
- phytotoxicity rating CASOB ([3]; 250 g ai/ha): 40
- phytotoxicity rating ABUTH ([4]; 63 g ai/ha): 100
- phytotoxicity rating ABUTH ([4]; 250 g ai/ha): 100
- phytotoxicity rating DIGSA ([5]; 63 g ai/ha): 0
- phytotoxicity rating DIGSA ([5]; 250 g ai/ha): 10
- phytotoxicity rating ECHCG ([6]; 63 g ai/ha): 0
- phytotoxicity rating ECHCG ([6]; 250 g ai/ha): 20
- phytotoxicity rating IPOHE ([7]; 63 g ai/ha): 40
- phytotoxicity rating IPOHE ([7]; 250 g ai/ha): 85
- phytotoxicity rating SETVI ([8]; 63 g ai/ha): 10
- phytotoxicity rating SETVI ([8]; 250 g ai/ha): 40
- phytotoxicity rating SORHA ([9]; 63 g ai/ha): 0
- phytotoxicity rating SORHA ([9]; 250 g ai/ha): 10
- Pre-emerge Herbicidal Activity RICE ([10]; rate 63 g ai/ha): 0
- Pre-emerge Herbicidal Activity RICE ([10]; rate 250 g ai/ha): 60
- Pre-emerge Herbicidal Activity CORN ([11]; rate 63 g ai/ha): 0
- Pre-emerge Herbicidal Activity CORN ([11]; rate 250 g ai/ha): 30
- phytotoxicity rating RICE (crop damage) ([12]; 63 g ai/ha): 0
- phytotoxicity rating RICE (crop damage) ([12]; 250 g ai/ha): 35
- phytotoxicity rating CORN (crop damage) ([13]; 63 g ai/ha): 10
- phytotoxicity rating CORN (crop damage) ([13]; 250 g ai/ha): 5
- Pre-emerge Herbicidal Activity CHEAL ([14]; rate 63 g ai/ha): 90
- Pre-emerge Herbicidal Activity CHEAL ([14]; rate 250 g ai/ha): 100
- Pre-emerge Herbicidal Activity CASOB ([15]; rate 63 g ai/ha): 0
- Pre-emerge Herbicidal Activity CASOB ([15]; rate 250 g ai/ha): 30
- Pre-emerge Herbicidal Activity ABUTH ([16]; rate 63 g ai/ha): 80
- Pre-emerge Herbicidal Activity ABUTH ([16]; rate 250 g ai/ha): 100
- Pre-emerge Herbicidal Activity DIGSA ([17]; rate 63 g ai/ha): 0
- Pre-emerge Herbicidal Activity DIGSA ([17]; rate 250 g ai/ha): 70
- Pre-emerge Herbicidal Activity ECHCG ([18]; rate 63 g ai/ha): 0
- Pre-emerge Herbicidal Activity ECHCG ([18]; rate 250 g ai/ha): 30
- Pre-emerge Herbicidal Activity IPOHE ([19]; rate 63 g ai/ha): 20
- Pre-emerge Herbicidal Activity IPOHE ([19]; rate 250 g ai/ha): 70
- Pre-emerge Herbicidal Activity SETVI ([20]; rate 63 g ai/ha): 40
- Pre-emerge Herbicidal Activity SETVI ([20]; rate 250 g ai/ha): 90
- Pre-emerge Herbicidal Activity SORHA ([21]; rate 63 g ai/ha): 0
- Pre-emerge Herbicidal Activity SORHA ([21]; rate 250 g ai/ha): 60
- Pre-emerge Herbicidal Activity AMARE ([22]; rate 63 g ai/ha): 30
- Pre-emerge Herbicidal Activity AMARE ([22]; rate 250 g ai/ha): 90
